In patent US20100004194A1, “USE OF ISOMALTULOSE IN FOOD PRODUCTS HAVING A REGENERATIVE EFFECT” (priority 2006, published 2010):
Entries after “also recorded” stand apart in the source; their conditions may differ.

Columns and labels:
[1] = 3-armed crossover study: respiratory quotient before, during and after physical exertion (bicycle ergometer, Wingate test) with test drinks; format: in vivo, human; details: 21 male endurance athletes
Procedure: The effect of isomaltulose (Palatinose™) on the regulation of the metabolism before, during and after physical exertion was examined and compared with the consumption of maltodextrin or a placebo which has a non-glycaemic effect and is of equivalent sweetness.
The test was carried out as a 3-armed crossover study on 21 subjects. In each subject, the effect of a non-glycaemic drink (placebo=sweetened mineral water) was tested versus a drink containing maltodextrin versus isomaltulose.
The subjects were male endurance athletes with several years' training experience (VO2max>55 ml/kg KG) aged between 23 and 50.
In step ergometry on a bicycle (100 watts at the start; increased by 50 watts/3 min), performance was first determined in the range of from 70-75% of the maximum oxygen uptake. After a sufficient regeneration phase of at least 5 days, the first testing was carried out in randomised order. The testing was carried out in the morning, at the same time in each case, 3-4 hours after a standardised breakfast.
Standardised endurance exertion was first carried out on a bicycle ergometer at 70-75% of the VO2max over 90 min. […] The respiratory quotient (RQ) was determined at the moments −30, −15, 0, 15, 30, 45, 60, 75, 90 min before or during the exertion, immediately after completion of the Wingate test and also 3, 15, 30, 60 and 120 min after end of exertion. […]

[2] = Second meal effect crossover study: respiratory quotient over a test period including two meals and 30-min treadmill exertion; format: in vivo, human; details: 20 subjects
Procedure: The test was a crossover study with 20 subjects. In each subject, the effect of isomaltulose vs. sucrose/glucose syrup was tested.
The test period comprised two meals into which the test substances were integrated: on the one hand a breakfast, which consisted of a drink (250 ml, 10% carbohydrates=25 g of test substance) and biscuits (approx. 140 g, also with 25 g of test substance), and on the other hand a lunch consisting of mini pizzas, an apple and a refreshment drink. The carbohydrate quantity, consumed per portion of shortpastry, of wheat starch of the flour was, at about 50-60 g carbohydrates, at the same level in all biscuit variants. Each test period comprised two postprandial phases.
The respiratory quotient was determined first at rest, then during the subsequent 30-min exertion at moderate intensity (treadmill uphill protocol 4 km/h 5% gradient), at the end of the 30-minute post-exertion phase and up to 4 hours after consumption of the second meal (the lunch).

SMILES: OC[C@H]1O[C@H](OC[C@H]2OC(O)(CO)[C@@H](O)[C@@H]2O)[C@H](O)[C@@H](O)[C@@H]1O (stereo partly shown) [isomaltulose]
- respiratory quotient (RQ) after the physical exertion versus immediately prior to the exertion (percentage change) ([1]; 250 ml drinks with 25 g carbohydrate 30 min prior, at start, after 45 min and after Wingate test (2x250 ml), 90 min at 70-75% VO2max): substantially equal to or even lower; also recorded: substantially equal
- RQ throughout the test phase ([1]; isomaltulose drink compared with maltodextrin drink or placebo): lower RQ
- RQ after consumption of the breakfast ([2]; breakfast drink with 25 g plus biscuits with 25 g test substance, versus sucrose/glucose syrup breakfast): lower than after the sucrose/glucose syrup breakfast
- degree by which the RQ was lower after consumption of a second meal (lunch) ([2]; up to 4 hours after the lunch, versus sucrose/glucose syrup): maintained
